In US11896589B2, “Diazinyl amino acridines and medical uses thereof” (MyCural Therapeutics AB, priority 2018, dated 2024):
pIC50: −log10 of the molar value.

How the values were obtained:
[1] = tested on: MYC null (H015.19) Rat1 fibroblast cells; assay: Assay 5B Tgr cell growth (WST-1), MYC null; format: cell-based, rat; conditions: 48 hours
Procedure: (§1) FIG. 6: A-B) Neuroblastoma cell lines with (SK-N-DZ, Kelly and IMR-32) or without (SK-N-F1, SK-N-RA and SK-N-AS) MYCN-amplification were exposed to different concentrations of Example 1, Example 2 and control compound, respectively, for 48 hours. Cell growth and viability was estimated by measuring metabolic activity. C) Growth of TGR-1 (wt), HO15.19 (MYC knockout) and HOmyc3 (MYC reconstituted HO15.19) Rat1 fibroblasts, as measured by the WST-1 assay after treatment with Example 1. Data are shown as mean±standard deviation of 3-5 biological experiments, each with 3 technical repeats.
Assay 5B: Tgr Cell Growth
Tgr cells were treated at 37° C. and 5% CO2 at 48 hours with Example and Example 2. H015.19 is a MYC null rat cell line derived from Tgr1 (parental cells), while H0Myc3 cells were generated from the MYC null cells by reconstitution of a MYC gene(Mateyak, M. K., Obaya, A. J., Adachi, S. & Sedivy, J. M. Phenotypes of c-Myc-deficient rat fibroblasts isolated by targeted homologous recombination. Cell Growth Differ 8, 1039-1048 (1997)).

[2] = molecular target: T1, MYC:MAX (MYC-GLuc-C + MAX-GLuc-N) in HEK293 cells (Homo sapiens, UniProt P01106); assay: Assay 3C GLuc complementation assay; format: cell-based
T1 construct: expressed in transfected cells; host or cells: HEK293 (also COS-7)
T1 sequence (P01106 whole entry): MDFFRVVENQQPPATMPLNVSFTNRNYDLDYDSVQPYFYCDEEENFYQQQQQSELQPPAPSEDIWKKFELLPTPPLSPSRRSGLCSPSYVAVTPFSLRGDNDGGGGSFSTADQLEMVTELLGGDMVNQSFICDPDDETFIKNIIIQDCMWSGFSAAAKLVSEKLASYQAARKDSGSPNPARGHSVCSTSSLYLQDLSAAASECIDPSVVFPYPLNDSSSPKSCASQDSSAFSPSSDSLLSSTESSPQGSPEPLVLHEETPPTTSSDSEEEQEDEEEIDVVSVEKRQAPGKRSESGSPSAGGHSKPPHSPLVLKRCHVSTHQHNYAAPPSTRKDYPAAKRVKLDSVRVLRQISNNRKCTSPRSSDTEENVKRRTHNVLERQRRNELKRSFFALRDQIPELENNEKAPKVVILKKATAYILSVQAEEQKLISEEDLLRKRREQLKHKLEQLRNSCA
Procedure: (§2) FIG. 4: A) Endogenous MYC:MAX (upper panel) and FRA1:JUN (lower panel) interactions as visualized as fluorescent red dots by isPLA. Nuclei were counterstained with DAPI (blue). Cells were treated with 10 μM of indicated compounds for 16 hours and subjected to isPLA using pairs of MYC and MAX and of FRA1 and JUN antibodies, respectively. As negative control, primary antibody pairs but only one oligo-conjugated secondary antibody was used. B) Quantification of MYC:MAX and C) FRA1:JUN isPLA, representing an average number of nuclear dots per cell from three microscopic fields normalized to corresponding values for DMSO-treated cells. […] 1st-4th lanes from top; coimmunoprecipitated MAX, immunoprecipitated MYC, total levels of MAX and ACTIN, respectively, as determined by western blot analysis. E) MYC:MAX GLuc assay in cells. […] 24 hours later cells were treated with […] of Example 1, Example 2 and control compound for 16 hours and thereafter analyzed in a dual luciferase assay. The ratio of Gaussia/Firefly luciferase luminescence were calculated and normalized to DMSO-treated cells.
The protein fragment complementation assay using the Gaussia luciferase (GLuc) has been described (Remy, I. & Michnick, S. W. A highly sensitive protein-protein interaction assay based on Gaussia luciferase. Nat Methods 3, 977-979, doi:10.1038/nmeth979 (2006)). […] 24 hours later cells were treated with compound or DMSO. After another 17 hours the cells were harvested and lyzed in passive lysis buffer (Promega) supplemented with complete protease inhibitor (Roche). After 60 min incubation at room temperature 20 μM D-luciferin was added (substrate of Firefly luciferase) and luminescence was measured in a Lumat LB9501 (Berthold) or OmegaFluostar (BMG Labtech) luminometer. Directly after, the Gaussia luciferase substrate Coelenterazine (Promega) was added to a final concentration of 20 μM and the luciferase activity was measured. The ratio between Gaussia and Firefly luciferase values were calculated and normalized to DMSO-treated control cells.

[3] = tested on: non-MYCN-amplified neuroblastoma cells (SK-N-F1, SK-N-RA, SK-N-AS); assay: Assay 5A neuroblastoma cell growth (WST-1), non-MYCN-amplified; format: cell-based
Procedure: as §1
Assay 5A: Neuroblastoma Cell Growth
Neuroblastoma cell lines with (SK-N-DZ, Kelly and IMR-32) or without (SK-N-F1, SK-N-RA and SK-N-AS) MYCN-amplification were exposed to different concentrations of example compounds for 48 hours. Cell growth and viability was estimated by measuring metabolic activity by incubating cells in triplicates with WST-1 (Roche) in medium at 37° C. and 5% CO2 for 2 hours after which absorbance was measured with an Omega Fluostar (BMG Labtech) in a 96 well plate format.

[4] = molecular target: T2, endogenous MYC:MAX in MDA-MB231 cells (Homo sapiens, UniProt P01106); assay: Assay 3B CoIP of endogenous MAX with MYC; format: cell-based
T2 construct: endogenous in cells; host or cells: MDA-MB231
T2 sequence (P01106 whole entry): as above
Procedure: as §2
Coimmunoprecipitation of endogenous MYC:MAX proteins were essentially carried out as in Bahram, F. et al. Interferon-gamma-induced p27KIP1 binds to and targets MYC for proteasome-mediated degradation. Oncotarget 7, 2837-2854, doi:10.18632/oncotarget.6693 (2016). […]

MAX bHLHZip = molecular target: T3, MAX bHLHZip (Homo sapiens, UniProt P61244); assay: Assay 2A MST assay with MAX; format: binding; conditions: compound fixed at 3 μM, MAX titrated, highest concentration tested 15 μM
T3 construct: Recombinant MYC bHLHZip and MAX bHLHZip proteins were titrated
T3 sequence (P61244 22-102): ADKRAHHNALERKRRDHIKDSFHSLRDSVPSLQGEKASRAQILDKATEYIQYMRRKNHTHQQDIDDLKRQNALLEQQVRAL
Procedure: FIG. 2: A) MST assay of Example 1 effect on MYC and MAX, respectively. Recombinant MYC bHLHZip and MAX bHLHZip proteins were titrated, respectively, in a fixed concentration (3 μM) of Example 1. Changes in fluorescence were measured and normalized to control (buffer). Data are shown as mean±standard deviation of 6-8 biological repeats. B) MST assay of MYC (reverse MST). A fixed concentration of 200 nM labeled MYC was mixed with different concentrations of Example 1 as indicated. Data are shown as mean±standard deviation of 5 biological repeats. C) MST assay of Example 2 effect on MYC. D) MST assay of MYC with a control compound (non-binder).
The MYC MST assay was performed as described above (Biological example 1—Assay 1A), except that the fluorescent molecule was either protein or Example 1. The example compound was kept at a fix concentration of 3 μM in PBS supplemented with 0.05% Tween-20, while MYCbHLHZip or MAX was titrated. The migration of example compound changed at MYC protein concentrations above 1 μM, but was unaffected with MAX up to highest concentration tested (15 μM) (FIG. 2A). In a reverse experiment, Example 1 was titrated in a fixed protein concentration in PBS supplemented with 0.05% Tween-20 and 1% DMSO as described above after labelling primary amines of the protein using the Protein labelling kit GREEN-NHS (NanoTemper) according to manufacturer's protocol. […]

- inhibition at 10 µM ([2]; HEK293): 50%
- pIC50 ([2]; exogenous MYC:MAX): 5.00
- GI50 ([3]; Homo sapiens, SK-N-AS, 48 h, first run): > 20 µM
- GI50 ([3]; Homo sapiens, SK-N-AS, second run): > 25 µM
- GI50 ([3]; first run, 48 hours, sulphate hydrate): > 25 µM
- reduction of MYC:MAX protein interaction vs DMSO treated cells (CoIP) ([4]; 5 μM, 3.5 hours): More than Half
- inhibition at 5 µM ([4]; MDA-MB-231, read-out: CoIP inhibition at 10 μM): > 70%
- Effect on thermophoresis (MAX protein concentration) (MAX bHLHZip): > 15 µM
Compound: CCOc1ccc2nc3cc(/N=N/c4ccc(N)nc4N)ccc3c(N)c2c1 [Example 1, 3-((9-amino-7-ethoxyacridin-3-yl)diazenyl)pyridine-2,6-diamine sulphate hydrate]
- growth of the MYC null cells [1]: did not significantly affect
- GI50 ([1]; Rattus norvegicus, Fibroblast, first run): > 10 µM
